In ChEMBL document CHEMBL5154941, “Structural Modifications of Nimodipine Lead to Novel PDE1 Inhibitors with Anti-pulmonary Fibrosis Effects” (J Med Chem, 2022):
Calls of active or inactive are those of the source. No cut-off for these calls is given here.

What was measured:
[1] = test system: Rattus norvegicus; assay: Antifibrotic activity in bleomycin-induced Sprague-Dawley rat lung fibrosis model assessed as increase in cAMP level at 2.5 to 5 mg/kg, ip administered daily for 28 days by ELISA analysis; format: functional, organism-based; conditions: dose 2.5-5 mg/kg, time 28.0 day
[2] = test system: Rattus norvegicus; assay: Antifibrotic activity in bleomycin-induced Sprague-Dawley rat lung fibrosis model assessed as decrease in collagen deposition at 2.5 to 5 mg/kg, ip administered daily for 28 days by Masson's trichrome staining based analysis; format: functional, organism-based; conditions: dose 2.5-5 mg/kg, time 28.0 day
[3] = test system: HLF; assay: Antifibrotic activity in TGF-beta induced HLF cell assessed as suppression of FN level at 10 uM incubated for 48 hrs by Western blot analysis; format: functional, cell-based; conditions: Homo sapiens
[4] = test system: HLF; assay: Antifibrotic activity in TGF-beta induced HLF cell assessed as suppression of alpha-SMA level at 10 uM incubated for 48 hrs by Western blot analysis; format: functional, cell-based; conditions: Homo sapiens
[5] = Half life in Sprague-Dawley rat at 5 mg/kg, iv; format: ADME, organism-based; conditions: in vivo
[6] = test system: Rattus norvegicus; assay: Antifibrotic activity in bleomycin-induced Sprague-Dawley rat lung fibrosis model assessed as decrease in alpha-smooth muscle actin level at 2.5 to 5 mg/kg, ip administered daily for 28 days by Western blot analysis; format: functional, organism-based; conditions: dose 2.5-5 mg/kg, time 28.0 day
[7] = Clearance in Sprague-Dawley rat at 5 mg/kg, iv; format: ADME, organism-based; conditions: in vivo
[8] = target: cGMP-dependent 3',5'-cyclic phosphodiesterase (Homo sapiens, UniProt O00408); assay: Inhibition of PDE2A (580 to 919 residues) (unknown origin) expressed in Escherichia coli BL21 using [3H]-cGMP as substrate measured for 15 mins by liquid scintillation counter method
Sequence of cGMP-dependent 3',5'-cyclic phosphodiesterase (O00408 whole entry, the tested form may be a part): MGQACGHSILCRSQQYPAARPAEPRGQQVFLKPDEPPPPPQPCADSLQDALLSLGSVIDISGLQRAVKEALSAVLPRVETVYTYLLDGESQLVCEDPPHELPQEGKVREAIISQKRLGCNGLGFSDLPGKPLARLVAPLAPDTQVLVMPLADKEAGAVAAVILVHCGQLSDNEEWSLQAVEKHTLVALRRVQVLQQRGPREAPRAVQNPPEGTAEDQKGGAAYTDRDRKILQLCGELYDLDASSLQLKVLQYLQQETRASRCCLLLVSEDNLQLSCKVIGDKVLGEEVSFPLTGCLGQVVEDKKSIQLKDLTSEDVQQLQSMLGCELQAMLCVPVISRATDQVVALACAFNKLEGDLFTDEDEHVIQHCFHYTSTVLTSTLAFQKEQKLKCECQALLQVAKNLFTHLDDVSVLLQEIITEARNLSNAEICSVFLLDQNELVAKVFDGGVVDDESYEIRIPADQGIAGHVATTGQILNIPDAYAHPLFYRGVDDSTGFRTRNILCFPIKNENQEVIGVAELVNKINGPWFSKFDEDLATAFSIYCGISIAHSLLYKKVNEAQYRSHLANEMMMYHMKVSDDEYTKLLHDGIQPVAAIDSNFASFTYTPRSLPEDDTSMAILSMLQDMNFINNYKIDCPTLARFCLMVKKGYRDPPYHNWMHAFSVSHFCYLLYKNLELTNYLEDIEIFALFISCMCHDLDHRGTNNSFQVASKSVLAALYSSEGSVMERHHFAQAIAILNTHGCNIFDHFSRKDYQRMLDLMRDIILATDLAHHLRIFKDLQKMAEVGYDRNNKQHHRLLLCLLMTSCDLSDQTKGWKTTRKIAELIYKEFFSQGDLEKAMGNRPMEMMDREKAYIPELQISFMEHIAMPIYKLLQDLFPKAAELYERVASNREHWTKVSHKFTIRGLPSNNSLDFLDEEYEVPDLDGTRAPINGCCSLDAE

[9] = test system: Rattus norvegicus; assay: Antifibrotic activity in bleomycin-induced Sprague-Dawley rat pulmonary fibrosis model assessed as increase in respiratory rate at 150 mg/kg, po administered daily for 28 days; format: functional, organism-based; conditions: time 28.0 day
[10] = test system: Rattus norvegicus; assay: Antifibrotic activity in bleomycin-induced Sprague-Dawley rat lung fibrosis model assessed as decrease in fibronectin level at 2.5 to 5 mg/kg, ip administered daily for 28 days by Western blot analysis; format: functional, organism-based; conditions: dose 2.5-5 mg/kg, time 28.0 day
[11] = AUC (0 to t) in Sprague-Dawley rat at 5 mg/kg, iv; format: ADME, organism-based; set-up: dose 5 mg/kg, route iv; conditions: in vivo
[12] = test system: HLF; assay: Antifibrotic activity in TGF-beta induced HLF cell assessed as suppression of alpha-SMA level incubated for 48 hrs by Western blot analysis; format: functional, cell-based; conditions: Homo sapiens, DDE = dose-dependent effect
[13] = target: cGMP-specific 3',5'-cyclic phosphodiesterase (Homo sapiens, UniProt O76074); assay: Inhibition of PDE5A1 (535 to 860 residues) (unknown origin) expressed in Escherichia coli BL21 [3H]-cGMP as substrate measured for 15 mins by liquid scintillation counter method
[14] = Cmax in Sprague-Dawley rat at 5 mg/kg, iv; format: ADME, organism-based; set-up: dose 5 mg/kg, route iv; conditions: in vivo
[15] = target: High affinity cGMP-specific 3',5'-cyclic phosphodiesterase 9A (Homo sapiens, UniProt O76083); assay: Inhibition of PDE9A (181 to 506 residues) (unknown origin) expressed in Escherichia coli BL21 using [3H]-cGMP as substrate at 10000 nM measured for 15 mins by liquid scintillation counter method
Sequence of High affinity cGMP-specific 3',5'-cyclic phosphodiesterase 9A (O76083 whole entry, the tested form may be a part): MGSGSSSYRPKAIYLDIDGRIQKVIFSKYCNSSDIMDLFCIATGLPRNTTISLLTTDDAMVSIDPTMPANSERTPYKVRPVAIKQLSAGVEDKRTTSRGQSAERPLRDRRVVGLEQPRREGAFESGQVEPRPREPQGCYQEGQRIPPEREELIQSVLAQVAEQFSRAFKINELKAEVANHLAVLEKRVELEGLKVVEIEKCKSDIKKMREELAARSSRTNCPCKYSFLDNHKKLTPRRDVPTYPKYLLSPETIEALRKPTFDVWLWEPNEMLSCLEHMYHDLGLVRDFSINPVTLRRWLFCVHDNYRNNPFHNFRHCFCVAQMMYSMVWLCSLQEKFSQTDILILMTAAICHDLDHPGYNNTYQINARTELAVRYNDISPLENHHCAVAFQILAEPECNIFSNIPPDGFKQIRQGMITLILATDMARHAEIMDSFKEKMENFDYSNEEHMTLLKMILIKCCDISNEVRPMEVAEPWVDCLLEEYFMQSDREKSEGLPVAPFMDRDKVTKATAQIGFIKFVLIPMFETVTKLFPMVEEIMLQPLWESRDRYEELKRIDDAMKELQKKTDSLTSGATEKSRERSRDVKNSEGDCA

[16] = test system: Rattus norvegicus; assay: Antifibrotic activity in bleomycin-induced Sprague-Dawley rat pulmonary fibrosis model assessed as increase in respiratory rate at 2.5 to 5 mg/kg, ip administered daily for 28 days; format: functional, organism-based; conditions: dose 2.5-5 mg/kg, time 28.0 day
[17] = test system: Rattus norvegicus; assay: Antifibrotic activity in bleomycin-induced Sprague-Dawley rat lung fibrosis model assessed as decrease in collagen I level at 2.5 to 5 mg/kg, ip administered daily for 28 days by Western blot analysis; format: functional, organism-based; conditions: dose 2.5-5 mg/kg, time 28.0 day
[18] = MRT (0 to t) in Sprague-Dawley rat at 5 mg/kg, iv; format: ADME, organism-based; conditions: in vivo
[19] = test system: Rattus norvegicus; assay: Antifibrotic activity in bleomycin-induced Sprague-Dawley rat pulmonary fibrosis model assessed as decrease in end-expiratory pause at 2.5 to 5 mg/kg, ip administered daily for 28 days; format: functional, organism-based; conditions: dose 2.5-5 mg/kg, time 28.0 day
[20] = target: 3',5'-cyclic-AMP phosphodiesterase 4D (Homo sapiens, UniProt Q08499); assay: Inhibition of PDE4D2 (86 to 413 residues) (unknown origin) expressed in Escherichia coli BL21 [3H]-cAMP as substrate measured for 15 mins by liquid scintillation counter method
Sequence of 3',5'-cyclic-AMP phosphodiesterase 4D (Q08499 whole entry, the tested form may be a part): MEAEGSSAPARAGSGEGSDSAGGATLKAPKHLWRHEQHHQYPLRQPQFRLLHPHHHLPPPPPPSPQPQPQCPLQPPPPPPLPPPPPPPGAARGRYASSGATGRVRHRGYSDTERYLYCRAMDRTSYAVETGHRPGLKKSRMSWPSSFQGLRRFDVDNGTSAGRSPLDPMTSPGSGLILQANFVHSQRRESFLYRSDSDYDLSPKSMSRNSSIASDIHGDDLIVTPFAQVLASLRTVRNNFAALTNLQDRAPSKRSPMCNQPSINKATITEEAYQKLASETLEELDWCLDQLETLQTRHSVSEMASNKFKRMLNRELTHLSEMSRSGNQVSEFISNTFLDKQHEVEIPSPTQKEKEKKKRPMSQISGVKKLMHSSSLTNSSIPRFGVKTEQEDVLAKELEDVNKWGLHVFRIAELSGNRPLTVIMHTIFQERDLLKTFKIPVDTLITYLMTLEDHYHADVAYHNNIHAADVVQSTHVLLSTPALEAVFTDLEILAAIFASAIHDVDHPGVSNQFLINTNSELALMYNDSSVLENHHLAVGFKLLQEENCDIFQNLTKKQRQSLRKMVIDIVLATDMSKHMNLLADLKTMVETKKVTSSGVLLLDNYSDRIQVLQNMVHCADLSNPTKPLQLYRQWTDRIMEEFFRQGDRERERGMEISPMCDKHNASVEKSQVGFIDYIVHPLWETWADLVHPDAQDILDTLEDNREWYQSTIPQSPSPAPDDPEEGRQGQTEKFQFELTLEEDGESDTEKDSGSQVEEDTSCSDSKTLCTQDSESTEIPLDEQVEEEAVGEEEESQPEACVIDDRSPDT

[21] = target: Dual specificity calcium/calmodulin-dependent 3',5'-cyclic nucleotide phosphodiesterase 1B (Homo sapiens, UniProt Q01064); assay: Inhibition of PDE1B (10 to 487 residues) (unknown origin) expressed in Escherichia coli BL21 using [3H]-cGMP as substrate measured for 15 mins by liquid scintillation counter method
Sequence of Dual specificity calcium/calmodulin-dependent 3',5'-cyclic nucleotide phosphodiesterase 1B (Q01064 whole entry, the tested form may be a part): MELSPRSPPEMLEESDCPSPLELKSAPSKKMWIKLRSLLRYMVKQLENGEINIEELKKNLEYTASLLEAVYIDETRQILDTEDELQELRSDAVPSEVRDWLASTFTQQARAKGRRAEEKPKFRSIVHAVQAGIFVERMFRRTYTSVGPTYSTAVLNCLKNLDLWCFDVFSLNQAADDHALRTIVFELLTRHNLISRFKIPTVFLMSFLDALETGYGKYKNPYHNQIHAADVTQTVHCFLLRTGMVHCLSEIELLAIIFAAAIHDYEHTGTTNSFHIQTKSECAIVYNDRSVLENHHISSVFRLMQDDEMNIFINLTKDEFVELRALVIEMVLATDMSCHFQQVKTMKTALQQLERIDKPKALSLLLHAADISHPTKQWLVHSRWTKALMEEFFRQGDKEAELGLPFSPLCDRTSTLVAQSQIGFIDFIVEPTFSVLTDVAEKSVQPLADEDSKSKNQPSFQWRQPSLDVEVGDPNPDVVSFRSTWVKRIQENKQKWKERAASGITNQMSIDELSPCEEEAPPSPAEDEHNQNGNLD

[22] = test system: HLF; assay: Antifibrotic activity in TGF-beta induced HLF cell assessed as suppression of FN level incubated for 48 hrs by Western blot analysis; format: functional, cell-based; conditions: Homo sapiens, DDE = dose-dependent effect
[23] = test system: HLF; assay: Antifibrotic activity in TGF-beta induced HLF cell assessed as decrease in alpha-SMA level at 10 to 20 uM incubated for 48 hrs by DAPI staining based immunofluorescence microscopic analysis; format: functional; conditions: Homo sapiens, dose 10-20 µM
[24] = test system: HLF; assay: Antifibrotic activity in TGF-beta induced HLF cell assessed as suppression of Col-I level incubated for 48 hrs by Western blot analysis; format: functional, cell-based; conditions: Homo sapiens, DDE = dose-dependent effect
[25] = test system: HLF; assay: Antifibrotic activity in TGF-beta induced HLF cell assessed as decrease in FN level at 10 to 20 uM incubated for 48 hrs by DAPI staining based immunofluorescence microscopic analysis; format: functional; conditions: Homo sapiens, dose 10-20 µM
[26] = target: Cytochrome P450 2C19 (Homo sapiens, UniProt P33261); assay: Inhibition of CYP2C19 in human liver microsomes at 25 uM in the presence of NADPH; format: ADME, Microsome
Sequence of Cytochrome P450 2C19 (P33261 whole entry): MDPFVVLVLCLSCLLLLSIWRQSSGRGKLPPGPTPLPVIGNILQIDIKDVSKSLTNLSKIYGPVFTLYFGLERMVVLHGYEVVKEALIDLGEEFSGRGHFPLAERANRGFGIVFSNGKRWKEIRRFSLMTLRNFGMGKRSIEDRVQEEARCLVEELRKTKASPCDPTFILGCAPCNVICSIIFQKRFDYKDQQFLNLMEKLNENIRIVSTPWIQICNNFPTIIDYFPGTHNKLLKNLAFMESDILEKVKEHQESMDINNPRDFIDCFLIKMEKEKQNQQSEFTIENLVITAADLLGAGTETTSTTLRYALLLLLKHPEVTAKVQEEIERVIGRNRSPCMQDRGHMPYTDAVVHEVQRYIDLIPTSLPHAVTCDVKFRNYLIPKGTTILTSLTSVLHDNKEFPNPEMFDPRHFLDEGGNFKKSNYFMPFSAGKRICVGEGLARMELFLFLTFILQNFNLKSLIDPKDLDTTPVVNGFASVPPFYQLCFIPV

For `CC1=C(C(=O)O[C@H](C)c2ccccc2)C(c2ccc3c(cnn3C)c2)C(C(=O)O[C@H](C)c2ccccc2)=C(C)N1`, the Activity [1] was “Active”, the Activity [2] was “Active” and the Activity [3] was “Active”. For the same compound, the Activity [4] was “Active”, the half-life [5] was 3.67 h and the Activity [6] was “Active”. The clearance [7] was 18.4 mL/min/kg, the IC50 [8] was 5.13 µM and the Activity [9] was “Active”. For the same compound, the Activity [10] was “Active”, the AUC(0-t) [11] was 4560 ng·h/mL and the Activity [12] was “Dde”. For the same compound, the IC50 [13] was 1.81 µM, the Cmax [14] was 2830 ng/mL and the inhibition [15] was < 50%. The Activity [16] was “Active”, the Activity [17] was “Active” and the MRT last [18] was 3.44 h. For the same compound, the Activity [19] was “Active”, the IC50 [20] was 0.948 µM and the IC50 [21] was 0.354 µM. For the same compound, the Activity [22] was “Dde”, the Activity [23] was “Active” and the Activity [24] was “Dde”. The Activity [25] was “Active” and the IC50 [26] was 3.9 µM.
